Earlier results, collected in patent US20010012851A1, “NITRIC OXIDE RELEASING OXINDOLE PRODRUGS FOR ANAGESIC, ANTI-INFLAMMATORY AND DISEASE-MODIFYING USE” (priority 1999, published 2001).

What was measured:
[1] = animal models of acute and chronic inflammation; versus parent NSAID
[2] = acute and chronic administration; versus parent NSAID
[3] = rat
[4] = rat; for healing of experimental gastric ulcers (healing rate): daily treatment, Elliott et al. 1995

Structure (SMILES) | anti-inflammatory activity [1] | gastric injury [2] | mitochondrial damage ([3]; in vivo) | macroscopic damage in the small intestine ([3]; versus flurbiprofen) | healing of experimental gastric ulcers (healing rate) [4] | healing of experimental gastric ulcers ([4]; earlier knowledge on the NO donor)
CC(C(=O)OCCCCO[N+](=O)[O-])c1cccc(C(=O)c2ccccc2)c1 (stereo not shown) [ketoprofen nitroxybutylester] | comparable to that of their parent NSAIDs | markedly less gastric injury |  |  |  | 
CC(C(=O)OCCCCO[N+](=O)[O-])c1ccc(-c2ccccc2)c(F)c1 (stereo not shown) [flurbiprofen nitroxybutylester] | comparable to that of their parent NSAIDs | markedly less gastric injury | associated with mitochondrial damage in vivo | significantly less macroscopic damage |  | 
O=C(O)Cc1ccccc1Nc1c(Cl)cccc1Cl [diclofenac] |  |  |  |  | no effect | 
O=[N+]([O-])OCC(CO[N+](=O)[O-])O[N+](=O)[O-] [glyceryl trinitrate] |  |  |  |  | accelerated | significantly accelerated
COc1ccc2cc(CCC(C)=O)ccc2c1 [nabumetone] |  |  |  |  | no effect | 
O=C(Cc1ccccc1Nc1c(Cl)cccc1Cl)OCCCCO[N+](=O)[O-] [diclofenac nitroxybutylester, diclofenac-4-nitroxybutylester] | comparable to that of their parent NSAIDs | markedly less gastric injury |  |  | accelerated | 
